For one molecule, IC50 and percentage colony formation results are on record in patent US10913750B2, “Tubulin-binding compounds, compositions and uses related thereto” (The Regents of the University of California, priority 2015, dated 2021).

Assay type in all cases: cell-based
One test has as its system M244. The experiment in a line: CellTiter-Glo cell viability, M244. The procedure: (§1) To determine if MI-181 had broad anti-cancer activity, we treated a diverse panel of cancer cell lines including cervical adenocarcinoma (HeLa), breast adenocarcinoma (MCF7), melanoma (M233), osteosarcoma (U205), acute lymphoblastic leukemia (CCRF-CEM), non-small cell lung carcinoma (NCI-H460), and breast adenocarcinoma (MCF7) with MI-181 and determined its cell viability IC50 (FIGS. 13A and 13B). […] Therefore, the efficacy of MI-181 was analyzed in a panel of melanoma cell lines with defined genetic backgrounds including BRAF^V600E and NRAS^Q61L mutations and varied sensitivities to Vemurafenib (BRAF inhibitor) and Trametinib (MEK inhibitor), which are currently used to treat BRAF^V600E melanomas^43,44 (FIG. 10c). […] As a general trend BRAF^V600E cell lines were slightly more sensitive than NRAS^Q61L cell lines and MI-181 was effective in Vemurafenib and Trametinib resistant cell lines (FIG. 10c and Table 3). Finally, we tested the ability of MI-181 to inhibit melanoma colony formation using the M233 and M308 cell lines (both resistant to Vemurafenib). Indeed, MI-181 was a potent inhibitor of colony formation (percentage colony formation for 10 nM MI-181=0.2±0.1 and 0.8±0.7; for 10 nM colchicine=0.1±0.06 and 1.5±0.5; and for 10 nM Vemurafenib=94±7 and 102±5) (FIG. 10d). Thus, MI-181 is a potent inhibitor of melanoma cell lines. […]
A general note: ATP-based viability assays read luminescence as a measure of living cells.

A further test relates to M368. The experiment in a line: CellTiter-Glo cell viability, M368. On the procedure: as §1
A further test deals with M202. Description: CellTiter-Glo cell viability, M202. On the procedure: as §1
The test system of the next test is M409. Description: CellTiter-Glo cell viability, M409. On the procedure: as §1
The next test deals with M229. Description: CellTiter-Glo cell viability, M229. The procedure: as §1
For test [1], the system named is M308. The experiment in a line: Melanoma colony formation, M308. The settings on record: 10 nM, M308 (second value of pair). The procedure:
To determine if MI-181 had broad anti-cancer activity, we treated a diverse panel of cancer cell lines including cervical adenocarcinoma (HeLa), breast adenocarcinoma (MCF7), melanoma (M233), osteosarcoma (U205), acute lymphoblastic leukemia (CCRF-CEM), non-small cell lung carcinoma (NCI-H460), and breast adenocarcinoma (MCF7) with MI-181 and determined its cell viability IC50 (FIGS. 13A and 13B). […] Therefore, the efficacy of MI-181 was analyzed in a panel of melanoma cell lines with defined genetic backgrounds including BRAF^V600E and NRAS^Q61L mutations and varied sensitivities to Vemurafenib (BRAF inhibitor) and Trametinib (MEK inhibitor), which are currently used to treat BRAF^V600E melanomas^43,44 (FIG. 10c). […] As a general trend BRAF^V600E cell lines were slightly more sensitive than NRAS^Q61L cell lines and MI-181 was effective in Vemurafenib and Trametinib resistant cell lines (FIG. 10c and Table 3). Finally, we tested the ability of MI-181 to inhibit melanoma colony formation using the M233 and M308 cell lines (both resistant to Vemurafenib). Indeed, MI-181 was a potent inhibitor of colony formation (percentage colony formation for 10 nM MI-181=0.2±0.1 and 0.8±0.7; for 10 nM colchicine=0.1±0.06 and 1.5±0.5; and for 10 nM Vemurafenib=94±7 and 102±5) (FIG. 10d). Thus, MI-181 is a potent inhibitor of melanoma cell lines.

In the next test the test system is melanoma (M233). Description: CellTiter-Glo cell viability, M233. On the procedure:
as §1

Test [2] has as its system M308. The experiment in a line: CellTiter-Glo cell viability, M308. The procedure:
as §1

The next test has as its system M395. The experiment in a line: CellTiter-Glo cell viability, M395. The procedure: as §1
The next test relates to HeLa cells. Description: CellTiter-Glo cell viability, HeLa cells. The settings on record: Homo sapiens, HeLa. On the procedure: The cell viability IC50 of each compound was determined using Promega CellTiter-Glo Luminescent Cell Viability Assay kit by measuring the total ATP levels to quantify the number of metabolically active cells upon drug treatment as described in Crouch et al., J Immunol Methods 1993, 160, (1), 81-8. Briefly, the compounds were suspended in DMSO at 10 mM and diluted in 384 plates (20 μl/well in DMSO) in triplicate by a 14-point titration (12 nM to 100 μM). 50 μl of HeLa cells or patient derived glioblastoma cells (HK-309) (2000 cells/well) were then treated with the prepared dilutions of the drugs (0.5 μl) and incubated at 37° C. and 5% CO2. 72 hours later 50 μl of CellTiter-Glo reagent was added to each well followed by a 2 minutes shaking and a 10-minute incubation to lyse the cells. The relative luminescent intensity units (RLU) of each well was measured using a Tecan M1000 microplate reader (Tecan Group Ltd.) with its green filter and 1 second integration time.
Cells used in Example 2 and other examples disclosed herein were cultured as follows: Adherent HeLa cells and patient derived glioblastoma cells were grown with 5% CO2 at 37° C. in F12:DMEM 50:50 medium (Invitrogen) containing 10% FBS and 1% penicillin/streptomycin. To obtain HeLa cells synchronized in mitosis, cycling cells were treated with 2 mM thymidine (Sigma-Aldrich) for eighteen hours, washed three times with PBS, and released into fresh media until they entered mitosis eight hours post-release. Patient-derived glioblastoma cells (HK-309) were collected and grown with approval from the UCLA Institutional Review Board. HK-309 was derived from a recurrent glioblastoma taken from a person. The cells were initially propagated as cancer stem cell-containing spheres in serum-free medium containing basic fibroblast growth factor and epidermal growth factor (Preprotech) as described previously by Visnyei et al., Mol Cancer Ther 2011, 10, (10), 1818-28.
For mitotic arrest IC50s, cells were treated with a twenty-point-2-fold-titration (190 pM to 10 μM) of each compound tested for 20 hours. For cell viability IC50s, cells were treated with a fourteen-point-2-fold-titration (12.2 nM to 100 μM). Mitotic arrest IC50 was determined by measuring the percent G2/M arrest using the Vybrant DyeCycle Green (Invitrogen) assay described above. Cell viability IC50 was determined using the CellTiter-Glo Assay (Promega), which measures total ATP levels. Plates were read with a Tecan M1000 micro-plate reader at 540 nm. The CDD software was used for generating IC50 and IC90 values.

The test system of test [3] is breast adenocarcinoma (MCF7). Description: Cell viability, MCF7. The note with it: Homo sapiens; MCF7 cells. On the procedure: as §1

With `Cc1cc2nc(/C=C/c3cccnc3)sc2cc1C` [MI-181], the half-inhibitory concentration (IC50) with M244 was 41.5 nM; in the test with M368, 42.1 nM; with M202, 88.3 nM; with M409 it was 41.9 nM; in the test on M229, 36.7 nM; with melanoma (M233), 24.4 nM. Besides, the IC50 stood at 28.3 nM with M308 [2], 23.4 nM in the test on M395, 17.4 nM in the test with HeLa cells and 11000 nM in [3]. For the same molecule, in the test with M308 [1], the percentage colony formation is 0.8±0.7.

The term IC50 denotes the point on the concentration scale where inhibition reaches its midpoint. A low value points to higher potency.
